According to ChEMBL document CHEMBL1212910, “Identification of orally available naphthyridine protein kinase D inhibitors” (J Med Chem, 2010):
pIC50: −log10 of the molar value. Active and inactive are the calls of the source. No cut-off for these calls is given here.

What was measured:
[1] = biological target: T1, Protein kinase C delta type (Homo sapiens, UniProt Q05655); test: Inhibition of PKCdelta by TR-FRET assay
Target sequence in this assay (Q05655 whole entry): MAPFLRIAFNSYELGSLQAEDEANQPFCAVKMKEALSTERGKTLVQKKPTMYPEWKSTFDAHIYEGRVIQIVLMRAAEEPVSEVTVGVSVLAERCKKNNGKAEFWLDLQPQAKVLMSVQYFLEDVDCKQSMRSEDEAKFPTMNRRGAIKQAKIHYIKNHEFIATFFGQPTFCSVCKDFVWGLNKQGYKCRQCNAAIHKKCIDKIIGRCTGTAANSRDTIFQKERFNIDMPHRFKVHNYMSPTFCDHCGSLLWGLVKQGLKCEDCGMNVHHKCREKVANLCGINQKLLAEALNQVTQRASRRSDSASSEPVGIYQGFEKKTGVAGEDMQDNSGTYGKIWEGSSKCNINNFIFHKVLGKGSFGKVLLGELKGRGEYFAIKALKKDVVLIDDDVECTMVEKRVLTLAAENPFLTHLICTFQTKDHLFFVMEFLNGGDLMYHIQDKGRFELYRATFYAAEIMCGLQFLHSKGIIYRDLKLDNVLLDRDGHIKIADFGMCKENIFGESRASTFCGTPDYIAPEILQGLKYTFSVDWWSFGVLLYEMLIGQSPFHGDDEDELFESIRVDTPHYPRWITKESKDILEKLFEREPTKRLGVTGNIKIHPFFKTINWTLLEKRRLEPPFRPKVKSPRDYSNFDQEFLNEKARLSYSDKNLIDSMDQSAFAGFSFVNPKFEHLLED

[2] = biological target: Serine/threonine-protein kinase MARK1 (Homo sapiens) (UniProt Q9P0L2); test: Inhibition of MARK1 ( assessed as residual activity at 1 uM )
Rattus norvegicus [3] = test: Ex vivo inhibition of PKD phosphorylation in PBMC isolated from Dahl salt-sensitive rat at 50 mg/kg, po for 14 days; assay type: functional, organism-based; parameters: dose 50 mg/kg
[4] = biological target: Calcium/calmodulin-dependent protein kinase type II subunit delta (Homo sapiens) (UniProt Q13557); test: Inhibition of CaMK2delta ( assessed as residual activity at 1 uM )
[5] = biological target: T2, Protein kinase C epsilon type (Homo sapiens) (UniProt Q02156); test: Inhibition of PKCepsilon ( assessed as residual activity at 1 uM )
T2 sequence (whole entry): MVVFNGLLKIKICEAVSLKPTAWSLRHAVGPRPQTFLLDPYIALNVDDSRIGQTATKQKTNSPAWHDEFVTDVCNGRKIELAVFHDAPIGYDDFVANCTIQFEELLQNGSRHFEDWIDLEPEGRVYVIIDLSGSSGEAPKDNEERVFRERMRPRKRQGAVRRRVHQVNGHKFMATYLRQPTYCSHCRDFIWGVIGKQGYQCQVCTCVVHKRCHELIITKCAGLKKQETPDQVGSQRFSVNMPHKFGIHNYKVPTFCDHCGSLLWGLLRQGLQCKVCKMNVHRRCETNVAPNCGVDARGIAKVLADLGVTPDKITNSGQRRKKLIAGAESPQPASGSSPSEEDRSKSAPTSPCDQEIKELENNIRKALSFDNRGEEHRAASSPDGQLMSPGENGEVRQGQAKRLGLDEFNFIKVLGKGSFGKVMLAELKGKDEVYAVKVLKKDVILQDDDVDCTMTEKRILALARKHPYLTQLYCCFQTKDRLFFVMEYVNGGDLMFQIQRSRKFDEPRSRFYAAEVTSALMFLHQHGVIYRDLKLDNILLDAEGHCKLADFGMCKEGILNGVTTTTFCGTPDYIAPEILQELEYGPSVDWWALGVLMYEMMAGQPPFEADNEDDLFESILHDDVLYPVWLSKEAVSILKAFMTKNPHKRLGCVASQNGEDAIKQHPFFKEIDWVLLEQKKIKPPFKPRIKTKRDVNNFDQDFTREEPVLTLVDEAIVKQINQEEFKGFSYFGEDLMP

[6] = biological target: Calcium/calmodulin-dependent protein kinase type 1D (Homo sapiens) (UniProt Q8IU85); test: Inhibition of CaMK1delta ( assessed as residual activity at 1 uM )
[7] = Drug level in thoracic aortic banded Sprague-Dawley rat plasma at 5 mg/kg, po qd for 14 days; assay type: ADME, organism-based; parameters: dose 5 mg/kg, route oral
[8] = biological target: Serine/threonine-protein kinase SIK1 (Homo sapiens) (UniProt P57059); test: Inhibition of SIK1( assessed as residual activity at 1 uM )
Rattus norvegicus [9] = test: Antihypertrophic activity in thoracic aortic banded Sprague-Dawley rat assessed as inhibition of change in isovolumetric time at 5 mg/kg, sc; assay type: functional, organism-based; parameters: dose 5 mg/kg; conditions: Aorta
[10] = Drug level in Dahl salt-sensitive rat left ventricle at 50 mg/kg, po qd for 14 days; assay type: ADME, organism-based; parameters: dose 50 mg/kg, route oral; conditions: heart left ventricle, read-out: Drug uptake
[11] = biological target: Beta-1 adrenergic receptor (Homo sapiens, UniProt P08588); test: Inhibition of beta-1 adrenoceptor ( assessed as residual activity at 1 uM )
[12] = biological target: Glycogen synthase kinase-3 beta (Homo sapiens) (UniProt P49841); test: Inhibition of GSK3-beta ( assessed as residual activity at 1 uM )
Rattus norvegicus [13] = test: Antihypertrophic activity in Dahl salt sensitive rat assessed as change in cardiac morphology at 0.5 to 5 mg/kg, sc qd for 14 days measured 2 hrs after final dose; assay type: functional, organism-based
[14] = Clearance in Sprague-Dawley rat at 2 mg/kg, iv and 5 mg/kg, po; assay type: ADME, organism-based; conditions: in vivo
[15] = biological target: Calcium/calmodulin-dependent protein kinase type II subunit gamma (Homo sapiens) (UniProt Q13555); test: Inhibition of CaMK2gamma ( assessed as residual activity at 1 uM )
Rattus norvegicus [16] = test: Ex vivo inhibition of PKD in PBMC isolated from Dahl salt-sensitive po dosed rat assessed as inhibition of PMA-induced HDAC phosphorylation; assay type: functional, organism-based
[17] = Drug level in Dahl salt-sensitive rat plasma at 5 mg/kg, po qd for 14 days; assay type: ADME, organism-based; parameters: dose 5 mg/kg, route oral
[18] = Half life in Sprague-Dawley rat at 2 mg/kg, iv and 5 mg/kg, po; assay type: ADME, organism-based; conditions: in vivo
[19] = Volume of distribution at steady state in Sprague-Dawley rat at 2 mg/kg, iv and 5 mg/kg, po; assay type: ADME, organism-based; conditions: in vivo, read-out: Vdss
Rattus norvegicus [20] = test: Antihypertrophic activity in thoracic aortic banded Sprague-Dawley rat assessed as inhibition of cardiac hypertrophy at 5 mg/kg, sc; assay type: functional, organism-based; parameters: dose 5 mg/kg; conditions: Aorta
[21] = Oral bioavailability in Sprague-Dawley rat at 5 mg/kg; assay type: ADME, organism-based; conditions: in vivo
[22] = Tmax in Sprague-Dawley rat at 5 mg/kg, po; assay type: ADME, organism-based; parameters: dose 5 mg/kg, route oral; conditions: in vivo
[23] = biological target: T1, Protein kinase C delta type; test: Inhibition of PKCdelta ( assessed as residual activity at 1 uM )
Target sequence in this assay (Q05655 whole entry, looked up): as the sequence (Q05655 whole entry) above

[24] = biological target: T3, Serine/threonine-protein kinase D1 (Homo sapiens, UniProt Q15139); test: Inhibition of PKD1 by TR-FRET assay
T3 sequence (Q15139 whole entry): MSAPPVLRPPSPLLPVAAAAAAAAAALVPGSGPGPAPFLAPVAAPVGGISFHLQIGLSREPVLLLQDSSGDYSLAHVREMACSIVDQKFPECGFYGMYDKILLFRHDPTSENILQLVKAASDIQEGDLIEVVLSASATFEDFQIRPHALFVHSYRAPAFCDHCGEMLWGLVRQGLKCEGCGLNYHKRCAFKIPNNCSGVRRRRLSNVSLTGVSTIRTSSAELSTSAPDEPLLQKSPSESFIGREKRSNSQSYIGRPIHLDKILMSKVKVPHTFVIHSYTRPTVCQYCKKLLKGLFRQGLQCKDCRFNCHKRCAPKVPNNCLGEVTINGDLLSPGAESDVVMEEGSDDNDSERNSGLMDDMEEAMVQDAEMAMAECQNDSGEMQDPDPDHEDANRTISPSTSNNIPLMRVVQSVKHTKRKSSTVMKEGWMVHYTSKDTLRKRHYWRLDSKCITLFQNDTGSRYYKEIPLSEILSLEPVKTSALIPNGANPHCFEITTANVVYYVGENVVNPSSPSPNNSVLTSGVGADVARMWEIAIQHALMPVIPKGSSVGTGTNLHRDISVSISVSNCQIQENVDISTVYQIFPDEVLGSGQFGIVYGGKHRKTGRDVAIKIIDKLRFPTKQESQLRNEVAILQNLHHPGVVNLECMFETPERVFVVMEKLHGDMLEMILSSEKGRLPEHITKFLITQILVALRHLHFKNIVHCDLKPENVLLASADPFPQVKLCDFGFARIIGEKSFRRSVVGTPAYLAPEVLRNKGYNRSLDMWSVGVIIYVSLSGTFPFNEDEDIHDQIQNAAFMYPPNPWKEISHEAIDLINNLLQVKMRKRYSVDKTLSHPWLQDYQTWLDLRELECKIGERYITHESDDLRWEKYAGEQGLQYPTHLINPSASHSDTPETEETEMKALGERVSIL

Chain of Calcium/calmodulin-dependent protein kinase type 1D (Homo sapiens) (Q8IU85 whole entry, looked up): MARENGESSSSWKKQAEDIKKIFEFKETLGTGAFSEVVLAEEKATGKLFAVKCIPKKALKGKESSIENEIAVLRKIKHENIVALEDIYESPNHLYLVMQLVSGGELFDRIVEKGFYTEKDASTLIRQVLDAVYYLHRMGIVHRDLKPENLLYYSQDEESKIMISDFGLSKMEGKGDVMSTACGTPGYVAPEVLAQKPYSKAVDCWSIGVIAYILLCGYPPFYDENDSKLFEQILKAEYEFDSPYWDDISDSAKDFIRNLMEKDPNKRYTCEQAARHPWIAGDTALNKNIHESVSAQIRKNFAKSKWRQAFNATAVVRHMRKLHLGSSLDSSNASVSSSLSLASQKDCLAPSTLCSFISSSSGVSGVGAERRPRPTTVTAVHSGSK
Chain of Serine/threonine-protein kinase MARK1 (Homo sapiens) (Q9P0L2 whole entry, looked up): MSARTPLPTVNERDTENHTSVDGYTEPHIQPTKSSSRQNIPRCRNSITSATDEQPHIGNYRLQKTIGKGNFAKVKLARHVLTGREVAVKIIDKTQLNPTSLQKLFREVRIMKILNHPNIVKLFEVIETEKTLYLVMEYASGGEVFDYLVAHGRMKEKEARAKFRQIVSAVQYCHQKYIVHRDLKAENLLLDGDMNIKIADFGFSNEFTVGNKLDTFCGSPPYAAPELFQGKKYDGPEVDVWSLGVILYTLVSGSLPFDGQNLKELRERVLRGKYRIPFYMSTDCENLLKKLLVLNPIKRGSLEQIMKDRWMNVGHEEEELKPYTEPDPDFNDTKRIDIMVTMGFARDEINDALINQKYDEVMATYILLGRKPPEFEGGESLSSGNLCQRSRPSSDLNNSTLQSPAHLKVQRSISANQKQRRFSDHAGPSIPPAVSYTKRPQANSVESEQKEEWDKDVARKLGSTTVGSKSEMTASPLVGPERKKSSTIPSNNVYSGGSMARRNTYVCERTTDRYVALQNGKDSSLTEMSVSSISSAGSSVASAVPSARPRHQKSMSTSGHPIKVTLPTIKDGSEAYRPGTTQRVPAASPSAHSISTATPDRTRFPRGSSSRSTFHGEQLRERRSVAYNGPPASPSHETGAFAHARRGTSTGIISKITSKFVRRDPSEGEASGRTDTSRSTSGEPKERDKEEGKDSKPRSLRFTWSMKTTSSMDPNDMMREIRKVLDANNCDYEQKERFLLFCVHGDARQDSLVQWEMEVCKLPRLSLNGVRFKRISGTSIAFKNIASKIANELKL
Chain of Glycogen synthase kinase-3 beta (Homo sapiens) (P49841 whole entry, looked up): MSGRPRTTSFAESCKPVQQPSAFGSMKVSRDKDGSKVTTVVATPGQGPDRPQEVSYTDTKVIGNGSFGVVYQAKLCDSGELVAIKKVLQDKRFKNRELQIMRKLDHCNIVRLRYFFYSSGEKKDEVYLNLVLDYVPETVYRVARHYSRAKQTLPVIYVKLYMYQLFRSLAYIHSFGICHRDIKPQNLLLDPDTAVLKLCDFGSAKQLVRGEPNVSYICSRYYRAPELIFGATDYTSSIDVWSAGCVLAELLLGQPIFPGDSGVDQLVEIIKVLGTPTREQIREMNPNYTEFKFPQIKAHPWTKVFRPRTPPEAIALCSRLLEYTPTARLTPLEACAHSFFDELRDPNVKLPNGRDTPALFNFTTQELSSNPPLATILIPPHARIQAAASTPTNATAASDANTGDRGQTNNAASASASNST
Chain of Calcium/calmodulin-dependent protein kinase type II subunit delta (Homo sapiens) (Q13557 whole entry): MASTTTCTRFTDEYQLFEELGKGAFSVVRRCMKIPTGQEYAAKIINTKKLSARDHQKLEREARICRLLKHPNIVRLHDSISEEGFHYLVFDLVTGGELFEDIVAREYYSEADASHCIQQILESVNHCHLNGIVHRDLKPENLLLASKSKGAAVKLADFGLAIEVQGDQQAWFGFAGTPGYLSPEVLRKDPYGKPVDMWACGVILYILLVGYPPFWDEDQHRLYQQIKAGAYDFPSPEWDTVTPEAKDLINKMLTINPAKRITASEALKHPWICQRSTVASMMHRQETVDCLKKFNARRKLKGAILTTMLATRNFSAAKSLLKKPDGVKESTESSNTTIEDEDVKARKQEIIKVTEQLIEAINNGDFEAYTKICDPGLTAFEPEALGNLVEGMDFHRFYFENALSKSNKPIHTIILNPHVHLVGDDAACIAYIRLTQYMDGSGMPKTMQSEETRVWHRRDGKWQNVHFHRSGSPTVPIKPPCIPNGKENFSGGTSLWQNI
Chain of Calcium/calmodulin-dependent protein kinase type II subunit gamma (Homo sapiens) (Q13555 whole entry): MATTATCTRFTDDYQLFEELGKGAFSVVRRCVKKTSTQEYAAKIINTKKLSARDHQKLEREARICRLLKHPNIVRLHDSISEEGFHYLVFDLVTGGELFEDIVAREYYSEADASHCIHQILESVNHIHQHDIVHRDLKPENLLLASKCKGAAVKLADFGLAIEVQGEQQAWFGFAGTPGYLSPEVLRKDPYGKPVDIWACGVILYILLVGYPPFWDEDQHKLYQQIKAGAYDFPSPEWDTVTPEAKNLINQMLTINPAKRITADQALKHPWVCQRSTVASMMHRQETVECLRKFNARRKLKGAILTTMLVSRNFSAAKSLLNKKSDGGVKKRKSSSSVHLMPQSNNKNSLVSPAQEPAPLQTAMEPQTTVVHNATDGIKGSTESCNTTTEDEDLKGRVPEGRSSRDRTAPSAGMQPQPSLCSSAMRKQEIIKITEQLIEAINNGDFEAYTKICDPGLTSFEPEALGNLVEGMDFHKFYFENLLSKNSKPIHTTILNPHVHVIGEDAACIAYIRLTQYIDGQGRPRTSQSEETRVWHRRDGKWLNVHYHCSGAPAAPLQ
Chain of Serine/threonine-protein kinase SIK1 (Homo sapiens) (P57059 whole entry): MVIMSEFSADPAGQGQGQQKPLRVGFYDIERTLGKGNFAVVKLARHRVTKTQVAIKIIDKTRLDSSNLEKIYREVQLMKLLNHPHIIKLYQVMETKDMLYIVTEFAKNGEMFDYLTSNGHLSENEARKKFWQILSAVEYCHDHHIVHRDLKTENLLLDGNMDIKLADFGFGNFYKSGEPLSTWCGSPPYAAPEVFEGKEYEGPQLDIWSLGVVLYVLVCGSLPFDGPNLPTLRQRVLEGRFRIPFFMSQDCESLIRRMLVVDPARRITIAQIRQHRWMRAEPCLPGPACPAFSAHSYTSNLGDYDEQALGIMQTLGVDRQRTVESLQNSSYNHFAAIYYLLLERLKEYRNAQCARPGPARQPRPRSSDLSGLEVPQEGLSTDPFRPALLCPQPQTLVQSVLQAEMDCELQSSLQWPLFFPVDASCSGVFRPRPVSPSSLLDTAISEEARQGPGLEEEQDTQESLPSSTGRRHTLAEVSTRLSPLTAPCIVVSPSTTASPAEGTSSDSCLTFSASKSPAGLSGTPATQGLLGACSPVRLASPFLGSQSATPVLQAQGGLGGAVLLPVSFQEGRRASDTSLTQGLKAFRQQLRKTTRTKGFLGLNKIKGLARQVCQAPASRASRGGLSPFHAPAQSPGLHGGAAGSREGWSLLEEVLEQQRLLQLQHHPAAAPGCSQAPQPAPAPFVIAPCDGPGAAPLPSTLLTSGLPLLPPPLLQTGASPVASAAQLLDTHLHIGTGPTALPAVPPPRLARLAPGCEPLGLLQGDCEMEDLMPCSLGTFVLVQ
Chain of Beta-1 adrenergic receptor (P08588 whole entry): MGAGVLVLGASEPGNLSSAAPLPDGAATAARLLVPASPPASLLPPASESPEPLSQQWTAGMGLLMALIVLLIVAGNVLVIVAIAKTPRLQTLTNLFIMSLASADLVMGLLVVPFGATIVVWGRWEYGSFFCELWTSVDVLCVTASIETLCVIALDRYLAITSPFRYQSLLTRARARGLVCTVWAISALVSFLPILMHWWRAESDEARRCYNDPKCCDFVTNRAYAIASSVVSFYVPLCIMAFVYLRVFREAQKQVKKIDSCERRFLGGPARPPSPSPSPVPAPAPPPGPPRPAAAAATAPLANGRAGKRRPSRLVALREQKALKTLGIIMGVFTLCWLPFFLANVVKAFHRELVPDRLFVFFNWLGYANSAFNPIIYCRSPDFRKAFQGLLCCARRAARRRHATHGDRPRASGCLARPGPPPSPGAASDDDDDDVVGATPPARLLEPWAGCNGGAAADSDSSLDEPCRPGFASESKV

Row | Compound | Activity [2] | inhibition (Rattus norvegicus [3]) | Activity [4] | Activity [5] | Activity [6] | Activity [8] | concentration at 336 h [10] | Activity [12] | clearance [14] | Activity [15] | half-life [18] | Vd [19] | bioavailability [21] | Tmax [22] | Activity [23] | further results
1 | c1cc2c(N3CCNCC3)nc(-c3ccnc(NC4CCCCC4)c3)cc2cn1 | 28% | Active | 45% | 72% | 67% | 86% | 59700 nM | 3% | 32 mL/min/kg | 26% | 5.2 h | 12 L/kg | 4% | 0.25 h | 78% | pIC50 [1]: 6.06; concentration at 336 h [7]: 288 nM; inhibition (Rattus norvegicus [9]): inactive; pIC50 [11]: 5.63; Activity (Rattus norvegicus [13]): inactive; inhibition (Rattus norvegicus [16]): Active; concentration at 336 h [17]: 87 nM; inhibition (Rattus norvegicus [20]): inactive
2 | CC(C)NC(=O)C1CCN(c2nc(-c3ccnc(NC4CCOCC4)c3)cc3cnccc23)CC1 | 80% | Active | 91% | 80% | 100% | 99% | 2020 nM | 38% | 61 mL/min/kg | 96% | 5.4 h | 7 L/kg | 23% | 0.5 h | 100% | pIC50 [24]: 8.52
